pIC50: −log10 of the molar value.

For the test, the target named is T1, endothelin converting enzyme (ECE) (Oryctolagus cuniculus, UniProt A0A5F9CTJ8).
T1 construct: The left saphenous artery was removed and cleaned of the surrounding tissue, cut into 2-3 mm length rings; from tissue; host or cells: left saphenous artery rings of male New Zealand rabbits
T1 sequence (A0A5F9CTJ8 1-783): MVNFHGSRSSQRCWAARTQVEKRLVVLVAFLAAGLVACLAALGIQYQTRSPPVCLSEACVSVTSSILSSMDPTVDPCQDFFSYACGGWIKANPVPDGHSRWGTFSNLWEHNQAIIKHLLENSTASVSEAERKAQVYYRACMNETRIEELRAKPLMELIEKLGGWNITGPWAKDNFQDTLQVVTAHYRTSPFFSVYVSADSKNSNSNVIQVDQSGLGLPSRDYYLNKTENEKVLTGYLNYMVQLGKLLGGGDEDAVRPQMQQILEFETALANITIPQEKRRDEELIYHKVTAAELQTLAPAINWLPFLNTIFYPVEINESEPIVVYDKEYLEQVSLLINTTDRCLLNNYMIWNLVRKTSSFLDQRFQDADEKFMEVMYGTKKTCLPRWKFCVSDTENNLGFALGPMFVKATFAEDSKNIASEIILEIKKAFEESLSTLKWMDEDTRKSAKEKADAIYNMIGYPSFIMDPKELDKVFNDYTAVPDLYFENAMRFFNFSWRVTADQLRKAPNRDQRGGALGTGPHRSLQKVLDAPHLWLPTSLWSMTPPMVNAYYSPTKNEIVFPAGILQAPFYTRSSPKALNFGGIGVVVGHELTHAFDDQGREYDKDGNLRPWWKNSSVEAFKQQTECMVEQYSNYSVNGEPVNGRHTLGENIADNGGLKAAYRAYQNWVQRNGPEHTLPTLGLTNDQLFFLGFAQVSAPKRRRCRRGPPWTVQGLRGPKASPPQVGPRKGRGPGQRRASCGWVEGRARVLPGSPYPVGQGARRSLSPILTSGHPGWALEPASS
Kind of test: In vitro ECE-inhibitory activity (inhibition of Big endothelin response in rabbit left saphenous artery rings). It is filed as cell-based, New Zealand rabbits. To be noted: human Big endothelin 3×10^-8 M, compound contact 30 minutes. How it is done:
Male New Zealand rabbits (2.5-3 Kg) were sacrificed with an excess of pentobarbital and blood was drawn. […] This solution was composed of (mM); NaCl, 118; KCl, 4.7; CaCl2, 2.5; KH2 PO4, 1.2; MgSO4, 1.2; NaHCO3, […]; glucose, 11. The preparations were kept under tension and readjusted to 1 g during the equilibration period (1 hour).
After said period, the preparations were exposed to a submaximal concentration of norepinephrine 1 μM which was repeated every 30 minutes until the response was stable. A concentration of acetylcholine 10 μM on the contraction of norepinephrine verified the presence of the endothelium.
After 30 minutes from the last contraction due to norepinephrine, a concentration of human Big endothelin 3×10^-8 M was administered. […] The percentage of ECE-inhibition was expressed as IC50 value (nM).

Broadly, the pIC50 is −log10 of the IC50, conventionally taken in molar units. Read a low pIC50 as a high IC50. `CC(C)C[C@H](NP(=O)(O)O[C@@H]1O[C@@H](C)[C@H](O)[C@@H](O)[C@H]1O)C(=O)N[C@@H](Cc1c[nH]c2ccccc12)C(=O)O` [Phosphoramidon, N-[N-[[(6-deoxy-α-L-mannopyranosyl)oxy]hydroxyphos-phinyl]-l-leucyl]-L-tryptophan]: the negative-log IC50 (pIC50) was 7.30.
